Where “and” joins values, the source holds several entries; their conditions need not be identical. Identical values can stand only once.
Assays:
Assay in all cases: PDSP GPCR panel primary binding assays at 10 μM
[1] = molecular target: T1, cloned human or rodent CNS receptors, channels, and transporters (PDSP panel) (Homo sapiens, UniProt P08908); conditions: primary assay
T1 construct: expressed in transfected cells
T1 sequence (P08908 1-422): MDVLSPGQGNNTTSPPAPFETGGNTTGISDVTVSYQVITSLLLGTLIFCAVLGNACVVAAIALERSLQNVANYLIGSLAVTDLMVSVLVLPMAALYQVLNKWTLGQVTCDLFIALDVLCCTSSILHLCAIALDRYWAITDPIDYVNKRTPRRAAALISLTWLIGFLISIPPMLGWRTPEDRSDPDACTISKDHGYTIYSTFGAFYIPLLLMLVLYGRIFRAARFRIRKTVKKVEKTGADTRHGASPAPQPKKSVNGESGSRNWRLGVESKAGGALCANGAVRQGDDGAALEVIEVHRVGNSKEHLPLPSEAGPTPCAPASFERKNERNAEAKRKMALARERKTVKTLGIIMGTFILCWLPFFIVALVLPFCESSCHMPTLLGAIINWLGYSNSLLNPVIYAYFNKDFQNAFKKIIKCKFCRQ
Procedure: (§1) GPCR panel: Screening against the receptors within the PDSP panel offers an assessment of off-target pharmacological activity at cloned human or rodent CNS receptors, channels, and transporters that could confound CNS-related phenotypes. A total of 46–47 primary binding assays were run in quadruplicate on these compounds at 10 μM, with follow-up secondary binding assays in 11-point dose-response in triplicate for select compounds versus select receptors. Secondary binding assays were executed for all receptors where test compound displaced an average of >50% of radio-labeled standard ligand. As an exception, no secondary assays were carried out for H3, PBR, or GABAA. […]

[2] = molecular target: T2, cloned human or rodent CNS receptors, channels, and transporters (PDSP panel) (Homo sapiens, UniProt P08912); conditions: primary assay
T2 construct: expressed in transfected cells
T2 sequence (P08912 1-532): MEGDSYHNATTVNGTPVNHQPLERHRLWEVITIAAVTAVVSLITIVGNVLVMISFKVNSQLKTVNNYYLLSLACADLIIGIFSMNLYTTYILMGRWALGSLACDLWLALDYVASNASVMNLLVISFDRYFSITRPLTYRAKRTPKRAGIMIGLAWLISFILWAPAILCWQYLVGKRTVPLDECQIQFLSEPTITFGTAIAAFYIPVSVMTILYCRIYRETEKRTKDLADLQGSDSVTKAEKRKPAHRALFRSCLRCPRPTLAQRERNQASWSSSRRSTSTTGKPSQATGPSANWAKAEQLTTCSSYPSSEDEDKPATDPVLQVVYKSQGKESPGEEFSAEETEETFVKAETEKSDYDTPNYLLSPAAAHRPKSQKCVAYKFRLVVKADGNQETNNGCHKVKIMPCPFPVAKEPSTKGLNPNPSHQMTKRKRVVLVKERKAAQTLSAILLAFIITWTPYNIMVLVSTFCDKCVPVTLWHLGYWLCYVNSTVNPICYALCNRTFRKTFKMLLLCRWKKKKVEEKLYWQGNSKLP
Procedure: as §1

[3] = molecular target: T3, cloned human or rodent CNS receptors, channels, and transporters (PDSP panel) (Homo sapiens, UniProt P28221); conditions: primary assay
T3 construct: expressed in transfected cells
T3 sequence (P28221 whole entry): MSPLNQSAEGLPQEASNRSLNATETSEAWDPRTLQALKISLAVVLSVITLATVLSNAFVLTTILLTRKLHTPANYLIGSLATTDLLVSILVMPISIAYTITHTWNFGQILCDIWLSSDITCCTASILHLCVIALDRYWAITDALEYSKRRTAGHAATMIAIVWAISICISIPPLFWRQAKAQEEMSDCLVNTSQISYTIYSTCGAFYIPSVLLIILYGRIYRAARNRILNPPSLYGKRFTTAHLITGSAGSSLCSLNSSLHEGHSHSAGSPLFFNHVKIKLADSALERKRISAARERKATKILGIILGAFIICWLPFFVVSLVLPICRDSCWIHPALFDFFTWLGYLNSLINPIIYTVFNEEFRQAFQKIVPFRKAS
Procedure: as §1

[4] = molecular target: T4, cloned human or rodent CNS receptors, channels, and transporters (PDSP panel) (Homo sapiens, UniProt P28222); conditions: primary assay
T4 construct: expressed in transfected cells
T4 sequence (P28222 whole entry): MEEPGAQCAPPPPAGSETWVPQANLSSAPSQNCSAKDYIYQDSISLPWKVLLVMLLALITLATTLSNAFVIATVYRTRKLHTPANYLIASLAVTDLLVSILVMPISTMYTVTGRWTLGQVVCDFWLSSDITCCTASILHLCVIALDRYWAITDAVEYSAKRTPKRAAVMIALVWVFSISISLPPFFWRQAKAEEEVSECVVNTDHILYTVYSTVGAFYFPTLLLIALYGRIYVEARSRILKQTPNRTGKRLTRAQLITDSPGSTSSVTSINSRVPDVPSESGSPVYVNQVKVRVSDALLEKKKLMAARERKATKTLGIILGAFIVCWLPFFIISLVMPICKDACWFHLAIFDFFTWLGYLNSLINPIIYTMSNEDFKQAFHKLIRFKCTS
Procedure: as §1

[5] = molecular target: T5, cloned human or rodent CNS receptors, channels, and transporters (PDSP panel) (Homo sapiens, UniProt P35367); conditions: H1, primary assay
T5 construct: expressed in transfected cells
T5 sequence (P35367 whole entry): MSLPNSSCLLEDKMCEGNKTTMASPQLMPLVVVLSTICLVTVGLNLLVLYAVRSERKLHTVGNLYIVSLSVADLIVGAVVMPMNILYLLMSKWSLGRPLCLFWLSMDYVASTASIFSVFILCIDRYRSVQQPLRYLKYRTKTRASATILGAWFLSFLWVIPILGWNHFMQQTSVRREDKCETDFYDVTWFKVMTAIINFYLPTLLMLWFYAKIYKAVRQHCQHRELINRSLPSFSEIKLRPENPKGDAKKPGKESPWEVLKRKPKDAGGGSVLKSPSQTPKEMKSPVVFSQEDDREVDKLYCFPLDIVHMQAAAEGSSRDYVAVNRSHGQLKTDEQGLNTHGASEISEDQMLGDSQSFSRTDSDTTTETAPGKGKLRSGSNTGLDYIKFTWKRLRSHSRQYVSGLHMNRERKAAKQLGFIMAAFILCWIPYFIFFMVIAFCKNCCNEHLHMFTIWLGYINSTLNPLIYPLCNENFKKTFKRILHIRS
Procedure: as §1

[6] = molecular target: T6, cloned human or rodent CNS receptors, channels, and transporters (PDSP panel) (Homo sapiens, UniProt P41145); conditions: primary assay
T6 construct: expressed in transfected cells
T6 sequence (P41145 whole entry): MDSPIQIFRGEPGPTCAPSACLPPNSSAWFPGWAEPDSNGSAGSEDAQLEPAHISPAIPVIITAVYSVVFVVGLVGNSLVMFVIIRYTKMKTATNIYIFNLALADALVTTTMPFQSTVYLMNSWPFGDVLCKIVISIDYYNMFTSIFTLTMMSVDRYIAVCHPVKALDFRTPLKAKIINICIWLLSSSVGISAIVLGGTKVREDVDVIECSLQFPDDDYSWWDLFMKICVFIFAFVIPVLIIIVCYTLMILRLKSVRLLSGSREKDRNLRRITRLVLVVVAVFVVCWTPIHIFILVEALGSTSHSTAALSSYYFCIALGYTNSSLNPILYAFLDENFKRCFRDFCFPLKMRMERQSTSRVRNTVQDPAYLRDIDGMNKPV
Procedure: as §1

[7] = test system: cloned human or rodent CNS receptors, channels, and transporters (PDSP panel); conditions: primary assay
Procedure: as §1

[8] = Receptor BZP Rat Brain Site, 10 μM

O=C(NC1CC1)C(=O)C(Cc1ccccc1)NC(=O)[C@H]1CCC(=O)N1Cc1ccccc1 (stereo partly drawn) [UNC10302676A, ABT-957 (Alicapistat)]
Mean % ([1]; 5-HT1A, mean inhibition): 3.84% | Inhibition 1 ([1]; 5-HT1A, replicate 1): 12.84% | Inhibition 2 ([1]; 5-HT1A, replicate 2): 2.5% | Inhibition 3 ([1]; 5-HT1A, replicate 3): 6.64% | Inhibition 4 ([1]; 5-HT1A, replicate 4): -6.64% | Mean % ([2]; M5, mean inhibition): -3.53% | Inhibition 1 ([2]; M5, replicate 1): 2.18% | Inhibition 2 ([2]; M5, replicate 2): -7.48% | Inhibition 3 ([2]; M5, replicate 3): -4.57% | Inhibition 4 ([2]; M5, replicate 4): -4.26% | Mean % ([3]; 5-HT1D, mean inhibition): 14.89% | Inhibition 1 ([3]; 5-HT1D, replicate 1): 25.3% | Inhibition 2 ([3]; 5-HT1D, replicate 2): 16.14% | Inhibition 3 ([3]; 5-HT1D, replicate 3): 8.22% | Inhibition 4 ([3]; 5-HT1D, replicate 4): 9.89% | Mean % ([4]; 5-HT1B, mean inhibition): 8.92% | Inhibition 1 ([4]; 5-HT1B, replicate 1): 9.16% | Inhibition 2 ([4]; 5-HT1B, replicate 2): 10.49% | Inhibition 3 ([4]; 5-HT1B, replicate 3): 8.83% | Inhibition 4 ([4]; 5-HT1B, replicate 4): 7.18% | Mean % ([5]; mean inhibition): 47.25% | Inhibition 1 ([5]; replicate 1): 60.11% | Inhibition 2 ([5]; replicate 2): 50.46% | Inhibition 3 ([5]; replicate 3): 44.57% | Inhibition 4 ([5]; replicate 4): 33.86% | Mean % ([6]; KOR, mean inhibition): -23.29% | Inhibition 1 ([6]; KOR, replicate 1): -17.69% | Inhibition 2 ([6]; KOR, replicate 2): -22.73% | Inhibition 3 ([6]; KOR, replicate 3): -22.5% | Inhibition 4 ([6]; KOR, replicate 4): -30.23% | Mean % ([7]; Alpha1A, mean inhibition): -18.33% | Inhibition 1 ([7]; Alpha1A, replicate 1): -14.03% | Inhibition 2 ([7]; Alpha1A, replicate 2): -31.43% | Inhibition 3 ([7]; Alpha1A, replicate 3): -21.43% | Inhibition 4 ([7]; Alpha1A, replicate 4): -6.43% | Mean % ([7]; Alpha2A, mean inhibition): 5.04% | Inhibition 1 ([7]; Alpha2A, replicate 1): 2.51% | Inhibition 2 ([7]; Alpha2A, replicate 2): 2.44% | Inhibition 3 ([7]; Alpha2A, replicate 3): -2.65% | Inhibition 4 ([7]; Alpha2A, replicate 4): 17.86% | Mean % ([7]; Alpha2C, mean inhibition): -12.84% | Inhibition 1 ([7]; Alpha2C, replicate 1): -8.12% | Inhibition 2 ([7]; Alpha2C, replicate 2): -10.33% | Inhibition 3 ([7]; Alpha2C, replicate 3): -21.43% | Inhibition 4 ([7]; Alpha2C, replicate 4): -11.46% | Mean % ([7]; BZP Rat Brain Site, mean inhibition): 3.75% | Inhibition 1 ([7]; BZP Rat Brain Site, replicate 1): 19.6% | Inhibition 2 ([7]; BZP Rat Brain Site, replicate 2): -1.35% | Inhibition 3 ([7]; BZP Rat Brain Site, replicate 3): -4.1% | Inhibition 4 ([7]; BZP Rat Brain Site, replicate 4): 0.83% | Mean % ([7]; DOR, mean inhibition): -6.76% | Inhibition 1 ([7]; DOR, replicate 1): 2.73% | Inhibition 2 ([7]; DOR, replicate 2): -0.34% | Inhibition 3 ([7]; DOR, replicate 3): -9.56% | Inhibition 4 ([7]; DOR, replicate 4): -19.86% | Inhibition 1 ([7]; GABAA, replicate 1): 23.2% and -15.74% | Inhibition 2 ([7]; GABAA, replicate 2): 18.02% and -7.64% | Inhibition 3 ([7]; GABAA, replicate 3): -2.68% and 0% | Inhibition 4 ([7]; GABAA, replicate 4): 4.71% and -21.69% | Mean % ([7]; H3, mean inhibition): -14.21% | Inhibition 1 ([7]; H3, replicate 1): -25.14% | Inhibition 2 ([7]; H3, replicate 2): -2.99% | Inhibition 3 ([7]; H3, replicate 3): -42.04% | Inhibition 4 ([7]; H3, replicate 4): 13.33% | Mean % ([7]; H4, mean inhibition): -11.52% | Inhibition 1 ([7]; H4, replicate 1): -3.78% | Inhibition 2 ([7]; H4, replicate 2): -13.62% | Inhibition 3 ([7]; H4, replicate 3): -23.94% | Inhibition 4 ([7]; H4, replicate 4): -4.74% | Mean % ([7]; Sigma 1, mean inhibition): -2.52% | Mean % ([7]; Sigma 2, mean inhibition): 7.31%

c1cn2cc(-c3ccc4cn[nH]c4c3)nc(Nc3ccc(N4CCOCC4)cc3)c2n1 [UNC10302678A, Entospletinib (GS-9973)]
Inhibition 1 ([1]; Receptor 5-HT1A, 10 μM): 14.91% | Inhibition 2 ([1]; Receptor 5-HT1A, 10 μM): -0.95% | Inhibition 3 ([1]; Receptor 5-HT1A, 10 μM): -3.19% | Inhibition 4 ([1]; Receptor 5-HT1A, 10 μM): 6.29% | Mean % ([1]; Receptor 5-HT1A, 10 μM, mean of Inhibition 1-4): 4.27% | Inhibition 1 ([2]; Receptor M5, 10 μM): -6.98% | Inhibition 2 ([2]; Receptor M5, 10 μM): -7.99% | Inhibition 3 ([2]; Receptor M5, 10 μM): 1.47% | Inhibition 4 ([2]; Receptor M5, 10 μM): 5.9% | Mean % ([2]; Receptor M5, 10 μM, mean of Inhibition 1-4): -1.9% | Inhibition 1 ([3]; Receptor 5-HT1D, 10 μM): 30.71% | Inhibition 2 ([3]; Receptor 5-HT1D, 10 μM): 10.31% | Inhibition 3 ([3]; Receptor 5-HT1D, 10 μM): -25.09% | Inhibition 4 ([3]; Receptor 5-HT1D, 10 μM): 3.23% | Mean % ([3]; Receptor 5-HT1D, 10 μM, mean of Inhibition 1-4): 4.79% | Inhibition 1 ([4]; Receptor 5-HT1B, 10 μM): 21.82% | Inhibition 2 ([4]; Receptor 5-HT1B, 10 μM): -6.09% | Inhibition 3 ([4]; Receptor 5-HT1B, 10 μM): 2.36% | Inhibition 4 ([4]; Receptor 5-HT1B, 10 μM): -8.65% | Mean % ([4]; Receptor 5-HT1B, 10 μM, mean of Inhibition 1-4): 2.36% | Inhibition 1 ([6]; Receptor KOR, 10 μM): -28.1% | Inhibition 2 ([6]; Receptor KOR, 10 μM): -33.36% | Inhibition 3 ([6]; Receptor KOR, 10 μM): -49.37% | Inhibition 4 ([6]; Receptor KOR, 10 μM): -45.23% | Mean % ([6]; Receptor KOR, 10 μM, mean of Inhibition 1-4): -39.02% | Inhibition 1 ([7]; Receptor Alpha1A, 10 μM): -6.64% | Inhibition 2 ([7]; Receptor Alpha1A, 10 μM): -39.37% | Inhibition 3 ([7]; Receptor Alpha1A, 10 μM): -29.27% | Inhibition 4 ([7]; Receptor Alpha1A, 10 μM): -15.24% | Mean % ([7]; Receptor Alpha1A, 10 μM, mean of Inhibition 1-4): -22.63% | Inhibition 1 ([7]; Receptor Alpha2A, 10 μM): -9.73% | Inhibition 2 ([7]; Receptor Alpha2A, 10 μM): -11.16% | Inhibition 3 ([7]; Receptor Alpha2A, 10 μM): -12.52% | Inhibition 4 ([7]; Receptor Alpha2A, 10 μM): 5.61% | Mean % ([7]; Receptor Alpha2A, 10 μM, mean of Inhibition 1-4): -6.95% | Inhibition 1 ([7]; Receptor Alpha2C, 10 μM): 4.82% | Inhibition 2 ([7]; Receptor Alpha2C, 10 μM): 7.15% | Inhibition 3 ([7]; Receptor Alpha2C, 10 μM): 3.37% | Inhibition 4 ([7]; Receptor Alpha2C, 10 μM): 11.76% | Mean % ([7]; Receptor Alpha2C, 10 μM, mean of Inhibition 1-4): 6.78% | Inhibition 1 [7, 8]: 2.63% | Inhibition 2 [7, 8]: -6.94% | Inhibition 3 [7, 8]: -0.59% | Inhibition 4 [7, 8]: 10.21% | Mean % ([7]; Receptor BZP Rat Brain Site, 10 μM, mean of Inhibition 1-4): 1.33% | Inhibition 1 ([7]; Receptor DOR, 10 μM): -7.03% | Inhibition 2 ([7]; Receptor DOR, 10 μM): -15.52% | Inhibition 3 ([7]; Receptor DOR, 10 μM): 1.47% | Inhibition 4 ([7]; Receptor DOR, 10 μM): -11.54% | Mean % ([7]; Receptor DOR, 10 μM, mean of Inhibition 1-4): -8.16% | Inhibition 1 ([7]; Receptor H3, 10 μM): 4.01% | Inhibition 2 ([7]; Receptor H3, 10 μM): 32.57% | Inhibition 3 ([7]; Receptor H3, 10 μM): 40.44% | Inhibition 4 ([7]; Receptor H3, 10 μM): 49.18% | Mean % ([7]; Receptor H3, 10 μM, mean of Inhibition 1-4): 31.55% | Inhibition 1 ([7]; Receptor H4, 10 μM): 40.38% | Inhibition 2 ([7]; Receptor H4, 10 μM): 31.02% | Inhibition 3 ([7]; Receptor H4, 10 μM): 31.26% | Inhibition 4 ([7]; Receptor H4, 10 μM): 64.39% | Mean % ([7]; Receptor H4, 10 μM, mean of Inhibition 1-4): 41.76% | Inhibition 1 ([7]; Receptor Sigma 1, 10 μM): 24.21% | Inhibition 2 ([7]; Receptor Sigma 1, 10 μM): 17.43% | Inhibition 3 ([7]; Receptor Sigma 1, 10 μM): 8.82% | Inhibition 4 ([7]; Receptor Sigma 1, 10 μM): -3.67% | Mean % ([7]; Receptor Sigma 1, 10 μM, mean of Inhibition 1-4): 11.7% | Inhibition 1 ([7]; Receptor Sigma 2, 10 μM): 10.94% | Inhibition 2 ([7]; Receptor Sigma 2, 10 μM): -1.79% | Inhibition 3 ([7]; Receptor Sigma 2, 10 μM): -3.28% | Inhibition 4 ([7]; Receptor Sigma 2, 10 μM): -0.08% | Mean % ([7]; Receptor Sigma 2, 10 μM, mean of Inhibition 1-4): 1.45%
